ChEMBL document CHEMBL3991601, “The target landscape of clinical kinase drugs” (Science, 2017)
The source made the active and inactive calls. Rule as the data show it, for most assays here: actives have a measured Kd and inactives only a lower limit.

Columns and labels:
[1] = molecular target: Tyrosine-protein kinase ABL1 (Homo sapiens, UniProt P00519)
[2] = molecular target: T1, AarF domain-containing protein kinase 1 (Homo sapiens, UniProt Q86TW2)
T1 sequence (Q86TW2 whole entry): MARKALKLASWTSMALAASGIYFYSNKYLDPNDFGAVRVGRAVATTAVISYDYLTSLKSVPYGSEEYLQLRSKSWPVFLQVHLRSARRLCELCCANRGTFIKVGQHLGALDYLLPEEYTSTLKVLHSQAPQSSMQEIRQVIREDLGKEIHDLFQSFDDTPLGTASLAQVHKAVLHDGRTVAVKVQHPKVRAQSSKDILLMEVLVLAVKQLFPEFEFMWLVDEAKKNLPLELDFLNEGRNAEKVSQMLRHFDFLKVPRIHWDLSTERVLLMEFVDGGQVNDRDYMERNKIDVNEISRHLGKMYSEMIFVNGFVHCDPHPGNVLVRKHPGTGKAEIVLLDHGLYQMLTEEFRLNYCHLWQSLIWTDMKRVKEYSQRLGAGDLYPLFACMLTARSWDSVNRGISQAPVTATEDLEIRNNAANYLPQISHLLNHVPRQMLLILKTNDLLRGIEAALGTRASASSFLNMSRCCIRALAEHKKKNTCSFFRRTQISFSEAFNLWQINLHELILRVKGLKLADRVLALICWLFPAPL

[3] = molecular target: T2, Cyclin-G-associated kinase (Homo sapiens, UniProt O14976)
T2 sequence (O14976 whole entry): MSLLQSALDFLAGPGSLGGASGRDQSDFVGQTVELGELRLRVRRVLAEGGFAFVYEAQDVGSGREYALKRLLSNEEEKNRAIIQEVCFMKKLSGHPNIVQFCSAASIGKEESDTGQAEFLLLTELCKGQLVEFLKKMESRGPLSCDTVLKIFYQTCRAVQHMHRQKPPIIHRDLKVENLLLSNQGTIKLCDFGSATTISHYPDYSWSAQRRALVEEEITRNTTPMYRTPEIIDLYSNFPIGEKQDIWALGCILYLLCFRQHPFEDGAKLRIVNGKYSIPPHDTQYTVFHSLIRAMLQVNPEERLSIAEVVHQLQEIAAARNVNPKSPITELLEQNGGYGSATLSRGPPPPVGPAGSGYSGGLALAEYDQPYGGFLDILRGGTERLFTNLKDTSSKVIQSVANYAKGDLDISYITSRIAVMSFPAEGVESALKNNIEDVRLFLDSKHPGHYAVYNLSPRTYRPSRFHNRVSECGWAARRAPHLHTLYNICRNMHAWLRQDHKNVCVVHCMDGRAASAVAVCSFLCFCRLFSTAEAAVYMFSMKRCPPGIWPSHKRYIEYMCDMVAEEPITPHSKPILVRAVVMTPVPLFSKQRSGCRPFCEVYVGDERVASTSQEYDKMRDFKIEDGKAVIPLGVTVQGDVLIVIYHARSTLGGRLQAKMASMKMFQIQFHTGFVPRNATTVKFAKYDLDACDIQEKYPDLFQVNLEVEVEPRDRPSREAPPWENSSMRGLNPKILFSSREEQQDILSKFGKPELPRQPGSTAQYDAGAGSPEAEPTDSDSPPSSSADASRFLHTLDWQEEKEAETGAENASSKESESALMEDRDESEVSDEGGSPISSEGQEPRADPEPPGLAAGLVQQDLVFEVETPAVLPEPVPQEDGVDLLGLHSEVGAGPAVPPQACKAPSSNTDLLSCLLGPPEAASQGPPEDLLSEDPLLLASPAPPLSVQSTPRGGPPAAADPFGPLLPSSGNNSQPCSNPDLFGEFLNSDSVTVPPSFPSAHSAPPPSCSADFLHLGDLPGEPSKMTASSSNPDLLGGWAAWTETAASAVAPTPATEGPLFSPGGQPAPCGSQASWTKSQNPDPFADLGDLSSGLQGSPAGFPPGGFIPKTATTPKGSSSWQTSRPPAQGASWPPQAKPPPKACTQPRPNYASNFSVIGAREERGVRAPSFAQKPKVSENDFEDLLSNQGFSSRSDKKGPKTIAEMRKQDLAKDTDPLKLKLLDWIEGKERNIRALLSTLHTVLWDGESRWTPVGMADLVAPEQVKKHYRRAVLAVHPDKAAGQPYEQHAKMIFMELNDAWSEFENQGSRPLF

[4] = molecular target: T3, DNA replication licensing factor MCM4 (Homo sapiens, UniProt P33991)
T3 sequence (P33991 whole entry): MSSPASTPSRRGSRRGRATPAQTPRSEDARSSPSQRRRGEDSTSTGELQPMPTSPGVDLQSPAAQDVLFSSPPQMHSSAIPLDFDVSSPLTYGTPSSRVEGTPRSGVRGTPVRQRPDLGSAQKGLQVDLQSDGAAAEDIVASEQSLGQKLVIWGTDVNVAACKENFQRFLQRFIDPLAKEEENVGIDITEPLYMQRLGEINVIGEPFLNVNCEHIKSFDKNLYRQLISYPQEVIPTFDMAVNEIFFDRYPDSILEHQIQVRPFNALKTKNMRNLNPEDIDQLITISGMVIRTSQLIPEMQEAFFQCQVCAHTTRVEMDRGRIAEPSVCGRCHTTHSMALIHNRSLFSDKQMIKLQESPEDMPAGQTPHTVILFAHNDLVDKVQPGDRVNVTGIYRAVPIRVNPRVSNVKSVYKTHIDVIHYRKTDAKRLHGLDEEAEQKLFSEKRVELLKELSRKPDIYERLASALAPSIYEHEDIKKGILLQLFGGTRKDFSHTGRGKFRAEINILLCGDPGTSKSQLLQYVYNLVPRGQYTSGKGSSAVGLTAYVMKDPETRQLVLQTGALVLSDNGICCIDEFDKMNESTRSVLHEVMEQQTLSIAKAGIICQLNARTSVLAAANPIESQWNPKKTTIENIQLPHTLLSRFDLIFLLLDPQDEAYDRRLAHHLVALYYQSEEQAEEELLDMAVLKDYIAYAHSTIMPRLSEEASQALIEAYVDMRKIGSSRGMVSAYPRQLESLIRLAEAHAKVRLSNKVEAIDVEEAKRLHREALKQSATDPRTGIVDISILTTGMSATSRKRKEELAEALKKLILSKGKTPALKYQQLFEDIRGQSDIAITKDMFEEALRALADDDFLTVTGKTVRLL

[5] = molecular target: Myosin light chain kinase, smooth muscle (Homo sapiens, UniProt Q15746)
Sequence of Myosin light chain kinase, smooth muscle (Q15746 whole entry): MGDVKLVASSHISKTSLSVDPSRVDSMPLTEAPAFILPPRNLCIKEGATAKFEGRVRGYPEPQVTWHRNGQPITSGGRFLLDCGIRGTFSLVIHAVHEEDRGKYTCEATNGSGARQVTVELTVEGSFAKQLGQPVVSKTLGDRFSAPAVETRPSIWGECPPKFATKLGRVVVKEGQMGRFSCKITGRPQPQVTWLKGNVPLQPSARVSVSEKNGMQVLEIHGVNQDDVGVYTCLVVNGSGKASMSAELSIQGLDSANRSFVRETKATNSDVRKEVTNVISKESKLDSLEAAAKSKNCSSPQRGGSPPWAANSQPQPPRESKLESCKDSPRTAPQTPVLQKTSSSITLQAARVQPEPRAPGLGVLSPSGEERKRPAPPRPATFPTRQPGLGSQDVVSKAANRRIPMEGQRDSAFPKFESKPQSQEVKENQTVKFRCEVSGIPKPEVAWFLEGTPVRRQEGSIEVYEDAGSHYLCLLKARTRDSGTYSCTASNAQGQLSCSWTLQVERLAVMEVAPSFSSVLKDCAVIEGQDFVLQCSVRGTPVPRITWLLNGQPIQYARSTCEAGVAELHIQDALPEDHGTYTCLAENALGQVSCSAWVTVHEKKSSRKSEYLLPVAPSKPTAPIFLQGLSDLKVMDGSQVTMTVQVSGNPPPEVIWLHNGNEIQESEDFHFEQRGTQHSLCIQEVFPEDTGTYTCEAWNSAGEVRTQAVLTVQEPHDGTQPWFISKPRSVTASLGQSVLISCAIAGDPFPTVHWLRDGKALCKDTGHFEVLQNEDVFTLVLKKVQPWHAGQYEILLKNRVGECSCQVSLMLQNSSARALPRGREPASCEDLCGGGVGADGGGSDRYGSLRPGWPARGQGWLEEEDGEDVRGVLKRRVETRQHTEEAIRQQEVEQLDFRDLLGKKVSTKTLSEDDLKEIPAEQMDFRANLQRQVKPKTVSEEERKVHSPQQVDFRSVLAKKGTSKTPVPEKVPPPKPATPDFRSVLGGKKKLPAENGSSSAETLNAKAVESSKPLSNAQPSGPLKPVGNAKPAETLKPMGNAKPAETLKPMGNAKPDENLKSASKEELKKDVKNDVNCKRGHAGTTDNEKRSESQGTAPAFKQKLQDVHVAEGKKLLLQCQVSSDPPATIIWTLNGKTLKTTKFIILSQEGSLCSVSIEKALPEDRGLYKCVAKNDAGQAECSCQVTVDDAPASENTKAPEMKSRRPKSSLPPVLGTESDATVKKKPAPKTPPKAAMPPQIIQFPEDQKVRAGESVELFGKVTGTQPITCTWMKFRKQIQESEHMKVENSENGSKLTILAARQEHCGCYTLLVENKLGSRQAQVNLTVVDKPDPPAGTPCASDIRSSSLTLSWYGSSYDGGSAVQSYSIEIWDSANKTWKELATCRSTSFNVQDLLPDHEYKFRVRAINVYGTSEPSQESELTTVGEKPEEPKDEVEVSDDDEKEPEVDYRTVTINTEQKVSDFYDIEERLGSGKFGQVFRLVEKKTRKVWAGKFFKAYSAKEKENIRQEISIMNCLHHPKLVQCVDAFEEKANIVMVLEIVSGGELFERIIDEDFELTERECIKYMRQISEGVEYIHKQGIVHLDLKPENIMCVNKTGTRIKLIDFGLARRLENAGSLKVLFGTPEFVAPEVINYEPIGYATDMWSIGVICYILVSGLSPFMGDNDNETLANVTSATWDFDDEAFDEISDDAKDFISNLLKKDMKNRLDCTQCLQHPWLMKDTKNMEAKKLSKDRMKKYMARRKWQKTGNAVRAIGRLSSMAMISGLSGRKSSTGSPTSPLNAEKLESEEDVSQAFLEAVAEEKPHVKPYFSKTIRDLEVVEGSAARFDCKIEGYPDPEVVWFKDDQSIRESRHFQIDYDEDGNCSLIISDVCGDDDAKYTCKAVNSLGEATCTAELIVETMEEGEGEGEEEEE

[6] = molecular target: Receptor-interacting serine/threonine-protein kinase 2 (Homo sapiens, UniProt O43353)
Sequence of Receptor-interacting serine/threonine-protein kinase 2 (O43353 whole entry): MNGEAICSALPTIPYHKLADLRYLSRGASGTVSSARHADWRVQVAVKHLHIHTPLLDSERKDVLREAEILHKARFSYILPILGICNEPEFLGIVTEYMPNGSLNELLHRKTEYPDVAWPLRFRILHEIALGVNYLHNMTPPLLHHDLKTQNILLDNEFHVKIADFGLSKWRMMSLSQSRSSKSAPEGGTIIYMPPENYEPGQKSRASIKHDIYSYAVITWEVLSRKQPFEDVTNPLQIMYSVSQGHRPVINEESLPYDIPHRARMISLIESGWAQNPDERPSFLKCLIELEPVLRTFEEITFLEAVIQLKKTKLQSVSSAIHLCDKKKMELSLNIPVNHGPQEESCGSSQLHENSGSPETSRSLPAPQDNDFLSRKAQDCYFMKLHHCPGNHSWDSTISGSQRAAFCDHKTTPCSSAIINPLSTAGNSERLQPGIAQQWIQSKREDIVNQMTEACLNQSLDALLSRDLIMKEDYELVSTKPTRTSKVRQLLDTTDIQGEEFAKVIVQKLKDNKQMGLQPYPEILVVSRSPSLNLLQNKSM

[7] = molecular target: Proto-oncogene tyrosine-protein kinase Src (Homo sapiens, UniProt P12931)
Sequence of Proto-oncogene tyrosine-protein kinase Src (P12931 2-536 limits assumed): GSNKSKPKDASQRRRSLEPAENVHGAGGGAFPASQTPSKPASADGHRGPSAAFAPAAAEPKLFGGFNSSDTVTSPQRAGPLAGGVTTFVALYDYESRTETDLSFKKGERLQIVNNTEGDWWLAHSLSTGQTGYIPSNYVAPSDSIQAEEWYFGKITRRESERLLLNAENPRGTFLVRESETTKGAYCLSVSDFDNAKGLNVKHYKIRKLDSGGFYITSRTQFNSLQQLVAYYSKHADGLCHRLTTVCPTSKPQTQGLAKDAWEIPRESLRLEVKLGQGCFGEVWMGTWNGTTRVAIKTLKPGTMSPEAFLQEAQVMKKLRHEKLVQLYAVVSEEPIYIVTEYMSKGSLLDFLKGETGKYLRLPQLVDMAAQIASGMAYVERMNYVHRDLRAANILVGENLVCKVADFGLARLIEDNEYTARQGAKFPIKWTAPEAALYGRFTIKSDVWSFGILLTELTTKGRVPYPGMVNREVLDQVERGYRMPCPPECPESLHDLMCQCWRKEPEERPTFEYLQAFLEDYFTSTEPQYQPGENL
Also: in the data inactive means no Kd found up to 30 µM.

Sequence of Tyrosine-protein kinase ABL1 (P00519 whole entry, the tested form may be a part): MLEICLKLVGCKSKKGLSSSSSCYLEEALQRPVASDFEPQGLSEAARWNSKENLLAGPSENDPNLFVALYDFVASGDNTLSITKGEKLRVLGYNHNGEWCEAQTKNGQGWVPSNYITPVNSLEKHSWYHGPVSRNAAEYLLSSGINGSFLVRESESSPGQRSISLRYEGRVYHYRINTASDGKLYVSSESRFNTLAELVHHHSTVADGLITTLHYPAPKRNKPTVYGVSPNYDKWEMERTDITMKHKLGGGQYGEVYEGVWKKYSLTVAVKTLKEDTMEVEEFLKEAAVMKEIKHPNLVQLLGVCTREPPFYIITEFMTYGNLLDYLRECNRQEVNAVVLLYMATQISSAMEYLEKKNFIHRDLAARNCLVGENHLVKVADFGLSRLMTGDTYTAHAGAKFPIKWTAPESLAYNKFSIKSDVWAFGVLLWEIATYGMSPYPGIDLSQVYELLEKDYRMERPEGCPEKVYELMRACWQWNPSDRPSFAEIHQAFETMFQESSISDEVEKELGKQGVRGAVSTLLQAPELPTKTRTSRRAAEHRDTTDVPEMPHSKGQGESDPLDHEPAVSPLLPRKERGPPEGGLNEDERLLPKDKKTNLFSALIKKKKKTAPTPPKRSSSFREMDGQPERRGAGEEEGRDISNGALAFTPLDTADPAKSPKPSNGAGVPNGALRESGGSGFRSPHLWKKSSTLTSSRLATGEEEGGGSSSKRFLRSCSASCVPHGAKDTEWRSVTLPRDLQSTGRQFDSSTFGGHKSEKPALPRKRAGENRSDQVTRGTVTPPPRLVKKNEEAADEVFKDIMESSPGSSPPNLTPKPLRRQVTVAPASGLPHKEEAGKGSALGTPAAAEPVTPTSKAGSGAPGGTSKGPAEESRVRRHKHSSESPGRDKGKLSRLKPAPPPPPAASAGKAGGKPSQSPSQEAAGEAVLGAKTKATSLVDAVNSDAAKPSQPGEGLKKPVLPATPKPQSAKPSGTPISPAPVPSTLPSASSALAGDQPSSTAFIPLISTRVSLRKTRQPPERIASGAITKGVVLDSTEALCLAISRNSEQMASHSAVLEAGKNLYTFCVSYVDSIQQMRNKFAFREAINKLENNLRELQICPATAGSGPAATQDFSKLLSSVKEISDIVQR

Kd [1] | Kd [2] | Kd [3] | Kd [4] | Kd [5] | Kd [6] | Kd [7] | Compound
> 30 µM (inactive) | > 30 µM (inactive) | > 30 µM (inactive) | > 30 µM (inactive) | > 30 µM (inactive) | > 30 µM (inactive) | > 30 µM (inactive) | CNC(=O)c1cccc(-c2ccc3c(N4CCOC[C@@H]4C)nc(N4CCOC[C@@H]4C)nc3n2)c1 [VISTUSERTIB]
> 30 µM (inactive) | > 30 µM (inactive) | > 30 µM (inactive) | > 30 µM (inactive) | 0.003 µM | > 30 µM (inactive) | > 30 µM (inactive) | NC(=O)c1ccc(N(C(N)=O)c2c(F)cccc2F)nc1-c1ccc(F)cc1F [VX-702]
> 30 µM (inactive) | > 30 µM (inactive) | 28.7 µM (active) | > 30 µM (inactive) | > 30 µM (inactive) | 5.94 µM (active) | > 30 µM (inactive) | COc1cc2ncnc(Nc3ccc(O)cc3)c2cc1OC [WHI-P131]
